We go through five compounds from US7141557B2, “Lipid analogs for treating viral infections” (Wake Forest University, priority 1994, dated 2006).

One data set has as its system HBV. Put plainly: Inhibition of HBV replication in transfected HepG2 cells by ELISA. The data set is classed as cell-based. The note with it: read-out: anti-HBV activity (IC50). The source says:
These cells constituitively replicate HBV particles.

The subject of another data set is CEM-SS cells. Put plainly: Cytotoxicity by uptake of TdR-H3 into total DNA in CEM-SS cells. The data set is classed as cell-based. The conditions noted are these: serial concentrations of compound.
In a further data set the test system is HIV-1. Kind of data set: Anti-HIV-1 syncytial plaque assay using CEM-SS cell monolayers. The data set is classed as cell-based, human immunodeficiency virus type 1 (HIV-1). The conditions noted are these: for IC50: HIV-1 syncytial plaque formation, CEM-SS cell monolayers, plaques counted at five days; for inhibition of HIV-1 activity in CEM-SS cells: in nanomolar concentration. The source says: In brief, CEM-SS cell monolayers were infected with HIV-1. Infected cells were overlaid with RPMI-1640 medium plus 10 percent fetal bovine serum (FBS) supplemented with different concentrations of inhibitor. Plaques were counted at five days after infection. In this assay HIV-1 syncytial plaques are seen as large, multicellular foci (10 to 25 nuclei/syncytium) that appear either brown and granular or clear. Since the number of HIV-1 syncytial plaques correlates with reverse transcriptase (RT) and p24 core antigen activity in the HIV-1 infected cell overlay fluids, the syncytial plaque assay can be used to quantify the amount of infectious virus. Reverse transcriptase activity was assayed according to a described procedure (B. J. Poeisz et al., Proc. Natl. Acad. Scie. (U.S.A.) 77, 7415 (1980)). The activity of p24 core antigen induced by HIV-1 infection of CEM-SS cells was measured spectrophotometrically using the commercial Coulter EIA.

A further data set relates to HepG2 cells. The conditions noted are these: read-out: cytotoxicity (TC50); HepG2 cells transfected with HBV genomes; neutral red dye uptake. As for the experimental part: Human hepatoblastomas (HepG2) cells were tranfected with plasmid DNA containing tandem copies of HBV genomes. These cells constituitively replicate HBV particles. HepG2 cells were treated with varying concentrations of CP-128 to determine the toxic cell concentration (TC50) by neutral red dye uptake. Also, the inhibitory concentration (IC50) of CP-128 for HBV replication was determined by ELISA.

Data set [1] relates to HBV-induced DNA, core antigen (HBcAg) and "e" antigen (HBeAg). Kind of data set: Mechanism studies: cellular production of HBV-induced DNA, core antigen and e antigen. The data set is classed as cell-based.

`CCCCCCCCCCCC(=O)NCC(COP(=O)([O-])OCC[N+](C)(C)C)OCCCCCCCCCC` (stereo not shown) [CP-128, 1-dodecanamido-2-decyloxypropyl-3-phosphocholine]: the half-maximal inhibitory concentration (IC50) amounted to 15.6 µM in the data set on HBV, 31.6 µM with CEM-SS cells and 0.14 µM in the data set with HIV-1. The “inhibition of HIV-1 activity in CEM-SS cells” value (“inhibition of HIV-1 activity” below) in the data set on HIV-1 was “substantially inhibit”. In the data set on HepG2 cells, the CC50 came to 61.7 µM. Also, in data set [1], the “effect on cellular production of HBV-induced DNA, core antigen (HBcAg) and "e" antigen (HBeAg)” value is “inhibitory effect”.
For `CCCCCCCCCCCCOCC(COP(=O)([O-])OCC[N+](C)(C)C)OCCCCCCCCCC` (stereo not shown) [CP-129, 1-dodecyloxy-2-decyloxypropyl-3-phosphocholine], the IC50 with CEM-SS cells came to 75.7 µM; in the data set with HIV-1, 0.64 µM. The “inhibition of HIV-1 activity” value in the data set with HIV-1 is listed as “substantially inhibit”.
In the data set with CEM-SS cells, `CCCCCCCCCCCC(=O)NCC(COP(=O)([O-])OCC[N+](C)(C)C)OCCCCCCCC` (stereo not shown) [CP-130, 1-dodecanamido-2-octyloxypropyl-3-phosphocholine] displayed an IC50 of 67.2 µM. Further, in the data set with HIV-1, the IC50 was found to be 0.11 µM and the “inhibition of HIV-1 activity” value is recorded as “substantially inhibit”.
The like results for `CCCCCCCCCCCCOC(CNC(=O)CCCCCCCCCCC)COP(=O)([O-])OCC[N+](C)(C)C` (stereo not shown) [CP-131, 1-dodecanamido-2-dodecyloxypropyl-3-phosphocholine] were, in that order, 36.6 µM, 0.32 µM and “substantially inhibit”.
`CCCCCCCCCCCCCCCCSC1CCCC(OP(=O)([O-])OCC[N+](C)(C)C)C1` (stereo not shown) [INK-1, 3-hexadecylthio-cyclohexylphosphocholine]: in the data set with HIV-1, the “inhibition of HIV-1 activity” value was “substantially inhibit”.
